Experimental data reported in US11584714B2 (priority 2018, dated 2023).
pKi: −log10 of the molar value. Structures can show the parent of a compound that is named as a salt. Where two headings read alike, the source gives them in different places.

What was measured:
Type in all cases: biochemical
mMASP-2 = mMASP-2 (Mus musculus (Mouse), UniProt Q91WP0); assay: Enzymatic inhibition of mMASP-2; conditions: read-out: mMASP-2 Ki
human α-thrombin = human α-thrombin (Homo sapiens (Human), UniProt P00734); assay: Enzymatic assay for thrombin (Boc-VPR-AMC substrate); conditions: for Ki: Thrombin Ki (μM); for pKi: read-out: Thrombin Ki
MASP-2 (CCP1-CCP2-SP) = MASP-2 (CCP1-CCP2-SP) (Homo sapiens (Human), UniProt O00187); assay: biochemical; conditions: for MASP-2 vs. thrombin selectivity: selectivity for MASP-2 inhibition versus thrombin
Sequence of MASP-2 (CCP1-CCP2-SP) (O00187 445-686): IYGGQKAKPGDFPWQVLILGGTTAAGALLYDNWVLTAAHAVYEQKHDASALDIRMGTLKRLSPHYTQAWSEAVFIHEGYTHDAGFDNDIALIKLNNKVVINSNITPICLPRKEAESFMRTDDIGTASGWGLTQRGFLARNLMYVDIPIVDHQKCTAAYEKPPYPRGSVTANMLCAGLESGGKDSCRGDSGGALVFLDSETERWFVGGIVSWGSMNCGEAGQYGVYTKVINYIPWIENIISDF

Sequence of mMASP-2 (Q91WP0 20-685): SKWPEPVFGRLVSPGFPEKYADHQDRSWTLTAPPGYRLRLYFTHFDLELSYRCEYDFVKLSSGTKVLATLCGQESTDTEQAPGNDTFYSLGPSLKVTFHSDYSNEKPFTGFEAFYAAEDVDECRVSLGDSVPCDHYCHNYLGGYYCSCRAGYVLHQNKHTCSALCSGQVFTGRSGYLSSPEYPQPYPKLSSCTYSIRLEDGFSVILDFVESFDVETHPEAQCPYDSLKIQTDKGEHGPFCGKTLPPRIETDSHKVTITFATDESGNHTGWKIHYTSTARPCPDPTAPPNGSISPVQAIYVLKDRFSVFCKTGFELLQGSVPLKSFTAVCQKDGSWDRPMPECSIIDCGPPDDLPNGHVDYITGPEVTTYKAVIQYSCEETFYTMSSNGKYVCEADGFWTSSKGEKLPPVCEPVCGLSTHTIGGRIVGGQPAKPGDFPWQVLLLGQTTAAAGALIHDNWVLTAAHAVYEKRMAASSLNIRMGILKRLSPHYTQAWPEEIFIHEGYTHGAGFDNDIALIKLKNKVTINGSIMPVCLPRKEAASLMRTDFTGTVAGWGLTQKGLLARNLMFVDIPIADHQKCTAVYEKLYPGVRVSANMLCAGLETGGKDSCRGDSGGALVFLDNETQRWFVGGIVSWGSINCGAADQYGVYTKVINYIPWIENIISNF

Row | Compound | pKi (mMASP-2) | Ki (human α-thrombin) [µM] | pKi (MASP-2 (CCP1-CCP2-SP); read-out: MASP-2 Ki) | MASP-2 vs. thrombin selectivity (MASP-2 (CCP1-CCP2-SP)) | pKi (human α-thrombin) | pKi (MASP-2 (CCP1-CCP2-SP))
1 | CCc1cccc([C@H]2CN[C@@H](C(=O)N[C@@H](C)C(=O)NCc3ccc(C(=N)N)cc3)C2)c1 [compound 1302, (2R,4S)—N—((S)-1-((4-Carbamimidoylbenzyl)amino)-1-oxopropan-2-yl)-4-(3-ethylphenyl)pyrrolidine-2-carboxamide Dihydrochloride] | > 6.30 | 0.5 to 2.5 | > 6.30 | *** (≥25 to <100-fold) |  | 
2 | CCc1cccc([C@H]2CN[C@@H](C(=O)N[C@@H](C)C(=O)NCc3ccc(N)nc3C)C2)c1 [compound 1303, (2R,4S)—N—((S)-1-(((6-Amino-2-methylpyridin-3-yl)methyl)amino)-1-oxopropan-2-yl)-4-(3-ethylphenyl)pyrrolidine-2-carboxamide Dihydrochloride] | 5.00 to 5.60 |  | > 6.30 | *** (≥25 to <100-fold) | < 4.60 | 
3 | Cc1nc(N)ccc1CNC(=O)[C@H](C)NC(=O)[C@H]1C[C@H](Cc2ccccc2)CN1 [compound 1304, (2R,4S)—N—((S)-1-(((6-Amino-2-methylpyridin-3-yl)methyl)amino)-1-oxopropan-2-yl)-4-benzylpyrrolidine-2-carboxamide Dihydrochloride] | 5.60 to 6.30 | 0.5 to 2.5 | > 6.30 | *** (≥25 to <100-fold) |  | 
4 | C[C@H](NC(=O)[C@H]1C[C@H](c2ccccc2)CN1)C(=O)NCc1ccc(C(=N)NC(=O)OCC(F)(F)F)cc1 [compound 1305, 2,2,2-Trifluoroethyl (imino(4-(((S)-2-((2R,4R)-4-phenylpyrrolidine-2-carboxamido)propanamido)methyl)phenyl)methyl)carbamate] | > 6.30 |  |  | ** (≥5.0 to <25-fold) | < 4.60 | 5.60 to 6.30
5 | C[C@H](NC(=O)[C@H]1C[C@H](Cc2ccccc2)CN1)C(=O)NCc1ccc(C(=N)N)cc1 [compound 1306, (2R,4S)-4-Benzyl-N-((S)-1-((4-carbamimidoylbenzyl)amino)-1-oxopropan-2-yl)pyrrolidine-2-carboxamide Dihydrochloride] | > 6.30 |  | > 6.30 | * (≥1.0 to <5.0-fold) | > 6.30 | 
6 | Cc1cc(Cl)cc(CNC(=O)[C@H](C)NC(=O)[C@H]2C[C@H](Cc3ccccc3)CN2)c1O [compound 1307, (2R,4S)-4-Benzyl-N-((S)-1-((5-chloro-2-hydroxy-3-methylbenzyl)amino)-1-oxopropan-2-yl)pyrrolidine-2-carboxamide Hydrochloride] | > 6.30 |  | > 6.30 | **** (≥100-fold) | < 4.60 | 
7 | Cc1nc(N)ccc1CNC(=O)[C@H](C)NC(=O)[C@H]1C[C@H](c2ccccc2)CCN1 [compound 1308, (2R,4R)—N—((S)-1-(((6-Amino-2-methylpyridin-3-yl)methyl)amino)-1-oxopropan-2-yl)-4-phenylpiperidine-2-carboxamide Dihydrochloride] | 5.60 to 6.30 | 10 to 25 |  | ** (≥5.0 to <25-fold) |  | 5.60 to 6.30
8 | Cc1nc(N)ccc1CNC(=O)[C@H](C)NC(=O)[C@H]1CN(c2cccc3ccccc23)CCN1 [compound 1309, (R)—N—((S)-1-(((6-Amino-2-methylpyridin-3-yl)methyl)amino)-1-oxopropan-2-yl)-4-(naphthalen-1-yl)piperazine-2-carboxamide Dihydrochloride] | > 6.30 |  | > 6.30 | **** (≥100-fold) | < 4.60 | 
9 | Cc1nc(N)ccc1CNC(=O)[C@H](C)NC(=O)[C@H]1C[C@@H](Oc2ccccc2)CN1 [compound 1310, (2R,4R)—N—((S)-1-(((6-Amino-2-methylpyridin-3-yl)methyl)amino)-1-oxopropan-2-yl)-4-phenoxypyrrolidine-2-carboxamide Dihydrochloride] | < 4.60 |  |  | *** (≥25 to <100-fold) | < 4.60 | 5.60 to 6.30
10 | C[C@H](NC(=O)[C@H]1C[C@H](c2ccccc2)CN1)C(=O)NCc1cnc2[nH]ccc2c1 [compound 1311, (2R,4R)—N—((S)-1-(((1H-Pyrrolo[2,3-b]pyridin-5-yl)methyl)amino)-1-oxopropan-2-yl)-4-phenylpyrrolidine-2-carboxamide Dihydrochloride] | 5.00 to 5.60 |  |  | * (≥1.0 to <5.0-fold) | < 4.60 | 5.00 to 5.60
11 | C[C@H](NC(=O)[C@@H](CCc1ccccc1)NCCCc1cccc(O)c1)C(=O)NCc1ccc(C(=N)N)cc1 [compound 1312, (R)—N—((S)-1-((4-Carbamimidoylbenzyl)amino)-1-oxopropan-2-yl)-2-((3-(3-hydroxyphenyl)propyl)amino)-4-phenylbutanamide Di-trifluoroacetate salt] | > 6.30 |  | > 6.30 | * (≥1.0 to <5.0-fold) | > 6.30 | 
12 | C[C@H](NC(=O)[C@H](N)CCc1ccccc1)C(=O)NCc1cc(C#N)ccc1O [compound 1314, (R)-2-Amino-N—((S)-1-((5-cyano-2-hydroxybenzyl)amino)-1-oxopropan-2-yl)-4-phenylbutanamide Trifluoroacetate salt] | < 4.60 |  |  | * (≥1.0 to <5.0-fold) | < 4.60 | 4.60 to 5.00
